Patent US20040259853A1, “Methods for preventing acute clinical vascular events in a subject” (The Trustees of Columbia University, priority 2000, published 2004)

Key:
[1] = test system: ABCA1-mediated cholesterol efflux; test: 3H-cholesterol efflux to apoA-I from free cholesterol-loaded macrophages; type: cell-based, mouse
Method: Peritoneal macrophages from C57 mice were incubated for 5 h with 100 μg/ml ^3H-cholesterol-labeled acetyl-LDL in DMEM, 0.2% BSA, in the presence of 10 μg/ml 58035.
Acetyl-LDL (800 μg) was incubated with 10 μCi ^3H-cholesterol for 30 min at 37° C., followed by addition of 8 ml of DMEM, 0.2% BSA. The macrophages were incubated with this medium for 5 h, washed 3 times with PBS, and then incubated with DMEM, 0.2% BSA for 15 min at 37° C. After washing with PBS, the macrophages were incubated with DMEM, 0.2% BSA, containing either 15 μg/ml apoAI or 20 μg/ml HDL2. At the indicated time points, 100 μl of media was removed and centrifuged for 5 min at 14,000 rpm to pellet cellular debris. The radioactivity in this fraction of media was quantitated by liquid scintillation counting. After the last time point, the remainder of the media was removed, and the cells were dissolved in 0.5 ml of 0.1 N NaOH containing 0.5% sodium dodecylsulfate (5 h at room temperature). A 100 μl-aliquot of the cell lysate was counted, and the percent efflux was calculated as (media cpm)[…](cell +media cpm)×100. Total protein in the cell lysate was determined using the Bio-Rad DC protein assay kit. Note that there was no statistical difference in cellular cpm or protein between cholesteryl ester- and free cholesterol-loaded macrophages.

[2] = test system: cholesterol trafficking to the plasma membrane; test: Cholesterol oxidase assay (plasma membrane cholesterol); type: cell-based, mouse
Method: Shown is the mass (in μg/mg cell protein) of cholesterol (Chol, open bars), which is the cholesterol oxidase-inaccessible pool of intracellular cholesterol, and of cholestenone (CN, striped bars), which is the cholesterol oxidase-accessible pool of plasma membrane cholesterol.
Macrophages were fixed with 1% glutaraldehyde for 10 min and then incubated for 30 min at 37° C. with 2 U/ml Streptomyces cholesterol oxidase. Cellular lipids were extracted twice with 0.5 ml of hexane:isopropanol (3:2).
Cholesterol and.cholestenone mass in these extracts were determined by gas-liquid chromatography using β-sitosterol as an internal standard. The lipid-extracted cell monolayer was dissolved in 1 ml 1N NaOH and assayed for protein content using the method of Lowry et al. (50).

ABCA1 protein = test: ABCA1 immunoblot of total and cell-surface protein in cholesterol-loaded macrophages; type: cell-based, mouse
Method: Macrophages were pre-incubated for 14 h with 50 μg/ml acetyl-LDL in DMEM, 0.2% BSA, in the absence (CE) or presence (FC) of 58035. The cells were then incubated for 5 h with 100 μg/ml acetyl-LDL in DMEM, 0.2% BSA, in the absence or presence of 58035, respectively, with no further additions (Control) or in the presence of 10 μg/ml cycloheximide, 50 μM ALLN, or 50 μM lactacystin as indicated. Aliquots of cell lysates were then assayed for ABCA1 and β-actin protein by immunoblot analysis.
Macrophages were pre-incubated for 14 h with 50 μg/ml acetyl-LDL in DMEM, 0.2% BSA, in the absence (CE) or presence (FC) of 58035. […] Aliquots of total cell protein (top panel) or cell-surface protein (bottom panel) were then subjected to immunoblot analysis for ABCA1 and the standards β-actin or β1-integrin.
Macrophage monolayers in 35-mm dishes were washed with ice-cold PBS 3 times and then incubated with ice-cold PBS containing 0.5 mg/ml NHS—SS-biotin (Pierce) for 30 minutes at 4° C. After washing 5 times with ice-cold PBS containing 20 mM Tris-HCl, pH 8.0, the cells were scraped into PBS and pelleted by centrifugation. The pelleted macrophages were lysed in 50 μl RIPA buffer (0.5% sodium deoxycholate, 0.1% SDS, 1% Triton X-100, 20 mM Tris, 150 mM NaCl, and 5 mM EDTA, pH 8) containing 1 mM PMSF. […] of the lysate were subjected directly to 4-20% gradient SDS-polyacrylamide gel electrophoresis (SDS-PAGE) for determination of total ABCA1. The rest of the cell lysate was affinity-purified to isolate biotinylated proteins. Briefly, the cell lysates were diluted to 150 μl in RIPA buffer and incubated with 50 μl immobilized streptavidin agarose (Pierce), which was pre-washed three times with RIPA buffer at 0° C. for 2 h with gentle shaking. The agarose was pelleted by centrifugation using a microcentrifuge at 5,000 rpm for 2 min; the pellet was resuspended in 1 ml RIPA buffer, and the process was repeated 5 times. The agarose was resuspended 30 μl SDS-PAGE loading buffer containing 330 mM β-mercaptoethanol at 37^6C for 15 min and subjected to SDS-PAGE as above. ABCA1 and β-integrin were detected by Western blot using anti-ABCA1 and anti-β-integrin anti-sera. The blots were reprobed with anti-β-actin antibody, which detected no actin signal, thus verifying that no cytosolic protein was biotinylated by the procedure.
Peritoneal macrophages were lysed in RIPA buffer containing 1 mM PMSF. Nuclei were removed by centrifugation at 3000×g for 10 min at 4° C. […] For Western blot detection of ABCA1, anti-ABCA1 antiserum was used. Signals were detected using HRP-conjugated secondary anti-bodies (Bio-Rad) and ECL (Amersham Pharmacia Biotech). The membranes were reprobed with anti-β actin monoclonal antibody or anti-β1-integrin anti-serum for the proper internal controls. The relative intensities of the bands were determined by densitometry.

[3] = test system: LDL receptor knockout mice; test: In vivo efficacy in LDL receptor knockout mouse model of atherosclerosis; settings: 0.75 mg/kg/d
Method: Plasma was assayed for total cholesterol.
Asteriks denote statistically significant differences between drug and control groups (p<0.05 by the Student's t test).

[4] = test system: mouse peritoneal macrophages; settings: very low doses; reference 22; cited from earlier work
[5] = test system: unfolded protein response (UPR); settings: very low doses; reference 22; cited from earlier work
ACAT enzyme = settings: reference 24; cited from earlier work
[6] = test system: unfolded protein response (UPR); test: Immunoblot analysis of UPR markers (CHOP, PERK, IRE1α, XBP-1) in macrophages
Method: For detection of PERK, nuclei-free cell extracts were immunoprecipitated with anti-PERK antiserum and then immunoblotted, while for detection of ATF-4 and CHOP, immunoblots were performed on nuclear extracts. Lamin B, a nuclear protein, was used as the loading control.
Immunoprecipitation and immunoblot detection for IRE1α and PERK were conducted as described by Harding et al. (35). Immunoblot analyses of XBP-1, ATF4, and CHOP were carried out as described previously (36,38) with minor modifications. Briefly, cells were lysed in RIPA buffer to prepare whole-cell lysates or to prepare nuclei by centrifugation. The whole-cell lysates or nuclei were resuspended in 2×SDS-PAGE loading buffer and incubated at 95° C. for 10 min. Whole cell (100 μg) or nuclear lysates (20 μg) were electrophoresed on 4-20% gradient SDS-PAGE gels and electrotransferred to 0.22-μm nitrocellulose membrane using a Bio-Rad mini-transfer tank. After incubation with primary antibodies, the protein bands were detected with HRP-conjugated secondary antibodies (Bio-Rad) and ECL (Amersham Pharmacia Biotech). The membranes were reprobed with an anti-β-actin monoclonal antibody or an anti-lamin B serum to control for differences in loading.

SMILES: CCN(CC)CCO[C@H]1CC[C@@]2(C)C(=CC[C@@H]3[C@@H]2CC[C@]2(C)C(=O)CC[C@@H]32)C1 [U18666A, 3-β-[2-(diethylamino)ethoxy]androst-5-en-17-one]
- concentrations at which efflux was gradually inhibited ([1]; FC-loaded macrophages): greater than 100 nM
- induction of cholesterol efflux to ApoA-1 ([1]; FC-loaded macrophages (FIGS. 11A, 11B)): marked ability to induce cholesterol efflux to ApoA-1
- concentration of peak cholesterol efflux to ApoA-1 ([1]; FC-loaded macrophages, 6 h apoA-I (FIG. 11A)): 70 nM
- restoration of ABCA1-dependent efflux ([1]; optimal low doses, FC-loaded macrophages (FIG. 12A)): restored ABCA1-dependent efflux
- reduction of cholesterol trafficking to the plasma membrane ([2]; 70 nM (data not shown)): about 10%
- accrual of cholesterol in the plasma membrane ([2]; low dose (70 nM), cholesterol oxidase accessibility and cyclodextrin extractability (FIG. 15B)): no effect
- ABCA1 protein loss in free cholesterol-loaded cells (total protein) (ABCA1 protein; 70 nM (FIG. 13, top panel)): protected from the ABCA1 protein loss
- decrease of cell-surface ABCA1 protein (ABCA1 protein; 70 nM, FC-loaded cells (FIG. 13, bottom panel), 60% in untreated cells): about 15%
- ABCA1 protein expression in free cholesterol-loaded cells (ABCA1 protein; low concentrations): markedly enhance
- plasma HDL cholesterol versus vehicle ([3]; 12 weeks (FIG. 14B)): similar
- atherosclerotic lesion area, proximal aorta ([3]; 12 weeks (FIG. 14C), p<0.05): marked reduction
- acellular area, proximal aorta ([3]; 12 weeks (FIG. 14D), p<0.05): marked reduction
- lipid core area, proximal aorta ([3]; 12 weeks (FIG. 14E), p<0.05): marked reduction
- plasma total cholesterol versus vehicle ([3]; 12 weeks, cholesterol and saturated fat diet (FIG. 14A)): similar
- block of apoptosis in FC-loaded cultured macrophages [4]: almost completely
- block of UPR activation in FC-loaded cultured macrophages [5]: almost completely
- direct inhibitory effect on the ACAT enzyme (ACAT enzyme): no direct inhibitory effect
- IRE1α activation and XBP-1 expression in FC-loaded macrophages ([6]; low dose (70 nM) (FIG. 16D, lane 5)): markedly attenuated both events
- CHOP induction in FC-loaded macrophages ([6]; low dose (70 nM), 5 h (FIG. 16A, lane 5)): attenuated CHOP induction
- PERK activation in FC-loaded macrophages ([6]; low dose (70 nM), 5 h (FIG. 16B, lane 5)): blocked PERK activation
